“And” between values parts separate entries of the source, which are not always exact repeats. Identical values can stand only once. Inconclusive results and toxic doses are left out. Rule as the data show it: active = T/C of 150% or more; inactive = T/C below 125%.
Tested on: L1210 leukemia ip in BDF1 mice, survival T/C
Assay: NCI In Vivo Anticancer Drug Screen. Data for tumor model L1210 Leukemia (intraperitoneal) in B6D2F1 (BDF1) mice
Details: endpoint: mean survival time, higher = longer survival
Summary of the method: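 Survival endpoint. Drug-treated group vs vehicle group, expressed as T divided by C. Tumor passaged by transplantation.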

[1] = dose: 100.0 mg/kg/injection, schedule: Q01DX001 (ip), vehicle: carboxymethylcellulose (CMC)
[2] = dose: 200.0 mg/kg/injection, schedule: Q01DX001 (ip), vehicle: carboxymethylcellulose (CMC)
[3] = dose: 100.0 mg/kg/injection, schedule: Q04DX003 (ip), vehicle: Klucel (hydroxypropylcellulose) (HPC)
[4] = dose: 200.0 mg/kg/injection, schedule: Q04DX003 (ip), vehicle: Klucel (hydroxypropylcellulose) (HPC)
[5] = dose: 400.0 mg/kg/injection, schedule: Q04DX003 (ip), vehicle: Klucel (hydroxypropylcellulose) (HPC)
[6] = dose: 400.0 mg/kg/injection, schedule: Q01DX001 (ip), vehicle: carboxymethylcellulose (CMC)
[7] = dose: 100.0 mg/kg/injection, schedule: Q04DX002 (ip), vehicle: saline with Tween-80
[8] = dose: 200.0 mg/kg/injection, schedule: Q04DX002 (ip), vehicle: saline with Tween-80
[9] = dose: 400.0 mg/kg/injection, schedule: Q04DX002 (ip), vehicle: saline with Tween-80
[10] = dose: 100.0 mg/kg/injection, schedule: Q01DX009 (ip), vehicle: Klucel (hydroxypropylcellulose) (HPC)
[11] = dose: 200.0 mg/kg/injection, schedule: Q01DX009 (ip), vehicle: Klucel (hydroxypropylcellulose) (HPC)
[12] = dose: 400.0 mg/kg/injection, schedule: Q01DX009 (ip), vehicle: Klucel (hydroxypropylcellulose) (HPC)
[13] = dose: 100.0 mg/kg/injection, schedule: Q01DX009 (ip), vehicle: saline with Tween-80
[14] = dose: 200.0 mg/kg/injection, schedule: Q01DX009 (ip), vehicle: saline with Tween-80

Measured: T/C

Oc1ccc(/C=N/Nc2nnc(N/N=C/c3ccc(O)cc3O)c3ccccc23)c(O)c1
inactive: dose: 2.5 mg/kg/injection, schedule: Q01DX015 (ip), vehicle: carboxymethylcellulose (CMC) 97 % of control | dose: 5.0 mg/kg/injection, schedule: Q01DX009 (ip), vehicle: saline 104 % of control | dose: 5.0 mg/kg/injection, schedule: Q01DX015 (ip), vehicle: carboxymethylcellulose (CMC) 98 % of control | dose: 10.0 mg/kg/injection, schedule: Q01DX009 (ip), vehicle: saline 109 % of control | dose: 10.0 mg/kg/injection, schedule: Q01DX015 (ip), vehicle: carboxymethylcellulose (CMC) 110 % of control | dose: 19.0 mg/kg/injection, schedule: Q01DX015 (ip), vehicle: carboxymethylcellulose (CMC) 120 % of control | dose: 20.0 mg/kg/injection, schedule: Q01DX009 (ip), vehicle: saline 106 % of control | dose: 32.0 mg/kg/injection, schedule: Q01DX015 (ip), vehicle: carboxymethylcellulose (CMC) 114 % of control | dose: 50.0 mg/kg/injection, schedule: Q01DX001 (ip), vehicle: saline 98 % of control | [1] 111 % of control | dose: 100.0 mg/kg/injection, schedule: Q01DX001 (ip), vehicle: saline 97 % of control | [2] 121 % of control | dose: 200.0 mg/kg/injection, schedule: Q01DX001 (ip), vehicle: saline 106 % of control | dose: 600.0 mg/kg/injection, schedule: Q01DX001 (ip), vehicle: carboxymethylcellulose (CMC) 117 % of control

O=[N+]([O-])c1ccc(Cl)c(OCCCBr)c1
inactive: [3] 108 % of control | [4] 95 % of control | [5] 94 % of control

CC(=O)OC(C)(C)/C=C/C(=O)[C@](C)(O)[C@H]1[C@H](O)C[C@@]2(C)[C@@H]3CC=C4[C@@H](C[C@H](O)C(=O)C4(C)C)[C@]3(C)C(=O)C[C@]12C
inactive: dose: 0.12 mg/kg/injection, schedule: Q01DX009 (ip), vehicle: saline 88 % of control | dose: 0.12 mg/kg/injection, schedule: Q04DX003 (ip), vehicle: saline 98 % of control | dose: 0.16 mg/kg/injection, schedule: Q01DX Z (ip), vehicle: saline 100 % of control | dose: 0.25 mg/kg/injection, schedule: Q01DX001 (ip), vehicle: saline 92 % of control | dose: 0.25 mg/kg/injection, schedule: Q01DX009 (ip), vehicle: saline 100 % of control | dose: 0.25 mg/kg/injection, schedule: Q01DX Z (ip), vehicle: saline 113 % of control | dose: 0.25 mg/kg/injection, schedule: Q04DX003 (ip), vehicle: saline 102 % of control | dose: 0.38 mg/kg/injection, schedule: Q01DX Z (ip), vehicle: saline 103 % of control | dose: 0.4 mg/kg/injection, schedule: Q01DX Z (ip), vehicle: carboxymethylcellulose (CMC) 93 % of control and 103 % of control | dose: 0.5 mg/kg/injection, schedule: Q01DX001 (ip), vehicle: saline 98 % of control | dose: 0.5 mg/kg/injection, schedule: Q01DX009 (ip), vehicle: saline 103 % of control | dose: 0.5 mg/kg/injection, schedule: Q04DX003 (ip), vehicle: saline 106 % of control | dose: 0.57 mg/kg/injection, schedule: Q01DX Z (ip), vehicle: saline 103 % of control | dose: 0.8 mg/kg/injection, schedule: Q01DX Z (ip), vehicle: carboxymethylcellulose (CMC) 108 % of control

O=C(O)c1cccc(SSc2cccc(C(=O)O)c2)c1
inactive: [1] 94 % of control | [2] 100 % of control | [6] 102 % of control

CN(C)P(=O)(c1ccccc1)c1ccccc1
inactive: [7] 112 % of control | [8] 102 % of control | [9] 94 % of control

CNC(=O)Nc1cccc(C(=O)O)c1
inactive: [10] 98 % of control | [11] 103 % of control | [12] 92 % of control

CCN(CC)CCOC(=O)C(O)(c1ccccc1)c1ccccc1
inactive: dose: 25.0 mg/kg/injection, schedule: Q04DX002 (ip), vehicle: saline 101 % of control | dose: 50.0 mg/kg/injection, schedule: Q04DX002 (ip), vehicle: saline 93 % of control | dose: 100.0 mg/kg/injection, schedule: Q04DX002 (ip), vehicle: saline 93 % of control and 115 % of control

COC(=O)C(CCCCN=Cc1ccccc1O)N=Cc1ccccc1O.[Ni] (stereo not given)
inactive: dose: 100.0 mg/kg/injection, schedule: Q04DX003 (ip), vehicle: saline with Tween-80 87 % of control | dose: 200.0 mg/kg/injection, schedule: Q04DX003 (ip), vehicle: saline with Tween-80 88 % of control

NNC(=O)c1ccc(Cl)cc1Nc1ccc(F)cc1
inactive: dose: 25.0 mg/kg/injection, schedule: Q04DX003 (ip), vehicle: saline 94 % of control | dose: 50.0 mg/kg/injection, schedule: Q04DX003 (ip), vehicle: saline 100 % of control | dose: 100.0 mg/kg/injection, schedule: Q01DX001 (ip), vehicle: saline sonified 111 % of control

CC(C)OC(=O)Nc1ccc(Cl)cc1
inactive: [13] 94 % of control | [14] 97 % of control | dose: 400.0 mg/kg/injection, schedule: Q01DX009 (ip), vehicle: saline with Tween-80 94 % of control

CC(C)(C)OC(=O)/N=N/C(=O)OC(C)(C)C
inactive: [1] 102 % of control | [2] 94 % of control | [6] 94 % of control

COc1ccc2c(c1)c(Cl)c1ccc(Cl)cc1[n+]2[O-]
inactive: [7] 91 % of control | [8] 95 % of control | [9] 107 % of control

O=C1COC2CCCCC2O1 (stereo not given)
inactive: [1] 108 % of control | [2] 101 % of control | [6] 106 % of control

CC1(CC(=O)O)CCc2ccccc2C1=O (stereo not given)
inactive: [10] 98 % of control | [3] 98 % of control | [11] 94 % of control | [4] 96 % of control | [12] 100 % of control | [5] 102 % of control

CN1CCN(C(=O)CCCCCCCCC(Br)CBr)CC1 (stereo not given)
inactive: dose: 15.0 mg/kg/injection, schedule: Q01DX001 (ip), vehicle: saline 103 % of control

CC(C)CN(CCCCO)CC(C)C
inactive: [13] 95 % of control | dose: 100.0 mg/kg/injection, schedule: Q04DX003 (ip), vehicle: saline 100 % of control | [14] 103 % of control | dose: 200.0 mg/kg/injection, schedule: Q04DX003 (ip), vehicle: saline 100 % of control | dose: 400.0 mg/kg/injection, schedule: Q04DX003 (ip), vehicle: saline 100 % of control

CCN(CC)Cc1cc(O)c(CN(CC)CC)cc1O
inactive: dose: 25.0 mg/kg/injection, schedule: Q01DX001 (ip), vehicle: saline with Tween-80 93 % of control | dose: 50.0 mg/kg/injection, schedule: Q01DX001 (ip), vehicle: saline with Tween-80 103 % of control | dose: 100.0 mg/kg/injection, schedule: Q01DX001 (ip), vehicle: saline with Tween-80 96 % of control

O=C(O)c1ccccc1C(=O)c1ccc(Br)cc1
inactive: [3] 93 % of control | [4] 96 % of control | [5] 104 % of control

COc1ccc(/C=C(\C(=O)c2ccc(O)cc2)c2ccccc2)cc1OC
inactive: [1] 94 % of control | [2] 89 % of control | [6] 89 % of control

COc1ccc(NCc2cnc3nc(N)nc(N)c3n2)cc1
inactive: dose: 20.0 mg/kg/injection, schedule: Q01DX009 (ip), vehicle: saline with Tween-80 110 % of control | dose: 40.0 mg/kg/injection, schedule: Q01DX009 (ip), vehicle: saline with Tween-80 108 % of control | dose: 80.0 mg/kg/injection, schedule: Q01DX009 (ip), vehicle: saline with Tween-80 106 % of control

OCCNC1c2ccccc2-c2ccccc21
inactive: dose: 50.0 mg/kg/injection, schedule: Q01DX009 (ip), vehicle: Klucel (hydroxypropylcellulose) (HPC) 100 % of control | [10] 118 % of control | [3] 102 % of control | [11] 99 % of control | [4] 107 % of control

Oc1ccccc1COCc1ccccc1O
inactive: dose: 100.0 mg/kg/injection, schedule: Q01DX001 (sc), vehicle: olive oil, sesame oil, peanut oil 104 % of control | dose: 100.0 mg/kg/injection, schedule: Q04DX003 (sc), vehicle: olive oil, sesame oil, peanut oil 102 % of control | dose: 200.0 mg/kg/injection, schedule: Q01DX001 (sc), vehicle: olive oil, sesame oil, peanut oil 98 % of control | dose: 200.0 mg/kg/injection, schedule: Q04DX003 (sc), vehicle: olive oil, sesame oil, peanut oil 108 % of control | dose: 400.0 mg/kg/injection, schedule: Q01DX001 (sc), vehicle: olive oil, sesame oil, peanut oil 100 % of control | dose: 400.0 mg/kg/injection, schedule: Q04DX003 (sc), vehicle: olive oil, sesame oil, peanut oil 108 % of control

Reference: PubChem BioAssay AID248 (DTP/NCI, 2004)
